Legend:
Format in all cases: cell-based
[1] = test system: human vaginal epithelial cells; assay: Neutral red screening of human cytotoxicity; details: 24 h incubation; positive control and validation component
Description: Potential cytotoxicity of the extracts was assayed in the neutral red-screening test using human vaginal epithelial cells at 80% confluence corresponding to 2*10^5 cells per well of 96 wells as follows:
The extracts freshly extracted and stored once frozen were incubated for 24 h with the epithelial cells at different concentrations. At the end of the experiment the cells were washed 3× and incubated with Neutral Red (NR) medium (50 μg/ml) for 3 hours at 37° C., 5.0% CO2/air. A water solution at 0.5% ethanol was used as negative control (present in all samples). […] Cells were then washed and NR quantified. 100% staining intensity indicate intact lysosomal activity. 0% indicates little to no survival of human cells. Results were analysed according to the Hill function. IC50 or concentrations with highest impairment of cell survival were determined.
Desorb solution was prepared in a ratio of water-ethanol-acetic acid glacial (49:50:1; v:v) during 20 min with shaking. Wavelength used for spectrophotometric reading of NR optical density was 540 nm. Test Criteria were that the differences between VC mean; R2>0.85; Point >0%<100%. The results are presented on FIG. 4.

[2] = test system: Candida albicans cells (ATCC MYA-2876); assay: Candida growth test (MIC, visual turbidity score)
Description: Candida albicans cells (ATCC MYA-2876) were incubated in SB (Sabouraud broth, Biolife 4020002) for 24 h at 30° C. and 150 rpm. The obtained culture was enumerated with a Neubauer Improved count chamber and concentration adjusted to 2.5·10^3 cfu/ml by dilution with sterile SB. Vaginal cells (End1/E6E7, ATCC CRL-2615) have been grown in Keratinocyte SFM (Gibco 17005-42) with 0.1 ng/ml human recombinant EGF (Gibco 10450-013), 0.05 mg/ml bovine pituitary extract (Gibco 13028-014) and additional calcium chloride 44.1 mg/L according to instructions by the provider, with media change every 2-3 days.
Minimal inhibitory concentration (MIC) of the plant extracts and antifungal substances was accomplished through tissue culture plates of 96 wells with flat bottom (Becton Dickinson). In each well 100 μl of the 2.5·10^3 cfu/ml Candida albicans culture obtained as described above in SB was mixed with 100 μl plant extract of different concentrations (0.025, 0.083, 0.25, 0.83, 2.5 and 8.3 mg/ml). Together with each dilution series a blank well was prepared with 100 μl culture and 100 μl of 5% ethanol-water solution. Fluconazole (Sigma, F8929) has been taken as positive control. Fluconazole solutions of different concentrations (4, 16, 32, 65, 650 μg/ml) have been freshly prepared prior testing. A well with only broth (100 μl) plus water (100 μl) and a well with broth plus plant extract (100 μl) were also prepared for color control. The plate was then incubated at 37° C. for 24 h and 48 h.
The evaluation of the growth inhibitory activities was conducted by visual observation of the turbidity of the wells and by attribution of a score from 0 (no growth) to 4 (maximal growth, similar to control well). MIC value of a substance is defined as the concentration which permits to reach a score of less than […]. […] In fact, the score of 2 represents an inhibition of Candida concentrations of about 80%. Results are presented on FIG. 2. […]

[3] = test system: Candida albicans adhesion on human vaginal epithelial cells (End1/E6E7); assay: Inhibitory activity on Candida adhesion on human vaginal epithelial cells
Description: A tissue culture plate of 24 wells was prepared with vaginal epithelial cells. 0.5 ml of a culture of 10^5 cells/ml in keratinocyte SFM were put in each well of a 24-well plate and incubated for 2 days at 37° C. and 5% CO2. Each well was filled (after taking away the vaginal cells growth media) with 1 ml C. albicans culture of 5·10^6 cfu/ml mixed with test substance. As control, the solvent of each test substance was also tested. The plate was incubated at 37° C. for 6 h or 2 h ([…] for Example 2, 2 h for Example 4), permitting Candida cells to adhere to vaginal cells. After incubation the Candida culture was pipetted away from each well, which were then washed 3 times with 0.5 ml PBS. The epithelial cells-Candida layer was treated with a 0.05% trypsin solution (concentration of 1 ml/25 cm^2), which was then neutralized by addition of DMEM with 10% FCS. […] The obtained cell solution was diluted and analyzed with pour plate method (Manuel Suisse des denrées alimentaires, Chapitre 56, 2000, revision partielle 2004): 1 ml of the appropriate dilution was pipetted into an empty Petri dish and about 15-20 ml of SDA, cooled down to 45-50° C., poured over it.
After 24 h incubation at 37° C. the colonies were counted and the result (in cfu/ml) multiplied 1.5 times to obtain the number of adhered cell in each well. […]

CCCCCCCCCCCCOS(=O)(=O)[O-].[Na+] [SDS]
IC50 neutral red cytotoxicity [1]: 8 to 25 µg/mL

OC(Cn1cncn1)(Cn1cncn1)c1ccc(F)cc1F [fluconazole]
Stability of the growth inhibition effect, 24 h versus 48 h ([2]; Example 1, 24 h and 48 h of treatment): maximal effect at 24 h and reduced effects at 48 h | Candida growth score (arbitrary unit, 0 no growth to 4 maximal growth) ([2]; after 48 h incubation, 2 separate runs): 2 to 3 arbitrary unit | Inhibition of Candida growth ([2]; all 5 concentrations applied (4, 16, 32, 65, 650 μg/ml)): inhibited Candida growth to a similar degree | Adhesion of Candida, average value (100% = control) ([3]; Example 1, fluconazole at 1 mg/ml, 6 hour incubation): 100%

Pepstatin A
% inhibition (adhesion of Candida albicans to human epithelial cells) ([3]; Table 3, at 1 μM): 5 (at 1 μM) %

Source: patent publication US10391134B2, “Anti-candida compositions and uses thereof” (PharmAlp SA, priority 2014, dated 2019)
